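Compound exposure: 48 hours, 5 concentrations, 96-well plates. GI50: concentration for 50% inhibition of growth. TGI: concentration producing complete growth inhibition.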
Experiments:
Experiment in all cases: NCI tumour cell line growth inhibition, 48 h
SNB-75 CNS = test system: SNB-75 CNS
SF-268 CNS = test system: SF-268 CNS
SR leukemia = test system: SR leukemia
NCI-H522 lung = test system: NCI-H522 lung
HT29 colon = test system: HT29 colon
SW-620 colon = test system: SW-620 colon
OVCAR-5 ovarian = test system: OVCAR-5 ovarian
U251 CNS = test system: U251 CNS
CAKI-1 renal = test system: CAKI-1 renal
IGROV1 ovarian = test system: IGROV1 ovarian
SK-MEL-2 melanoma = test system: SK-MEL-2 melanoma
HCT-116 colon = test system: HCT-116 colon
NCI-H460 lung = test system: NCI-H460 lung
ACHN renal = test system: ACHN renal
SNB-19 CNS = test system: SNB-19 CNS
LOX IMVI melanoma = test system: LOX IMVI melanoma
SN12C renal = test system: SN12C renal
DU-145 prostate = test system: DU-145 prostate
MDA-MB-231 breast = test system: MDA-MB-231 breast
COLO 205 colon = test system: COLO 205 colon
UO-31 renal = test system: UO-31 renal
OVCAR-8 ovarian = test system: OVCAR-8 ovarian
UACC-257 melanoma = test system: UACC-257 melanoma
HCT-15 colon = test system: HCT-15 colon
UACC-62 melanoma = test system: UACC-62 melanoma
M14 melanoma = test system: M14 melanoma
A498 renal = test system: A498 renal
SK-OV-3 ovarian = test system: SK-OV-3 ovarian
HL-60(TB) leukemia = test system: HL-60(TB) leukemia
T-47D breast = test system: T-47D breast
MALME-3M melanoma = test system: MALME-3M melanoma
KM12 colon = test system: KM12 colon
RPMI-8226 leukemia = test system: RPMI-8226 leukemia
MOLT-4 leukemia = test system: MOLT-4 leukemia
SK-MEL-5 melanoma = test system: SK-MEL-5 melanoma
MCF7 breast = test system: MCF7 breast
HOP-62 NSCLC = test system: HOP-62 NSCLC
RXF 393 renal = test system: RXF 393 renal
OVCAR-4 ovarian = test system: OVCAR-4 ovarian
HCC-2998 colon = test system: HCC-2998 colon
HOP-92 NSCLC = test system: HOP-92 NSCLC
K-562 leukemia = test system: K-562 leukemia
SF-295 CNS = test system: SF-295 CNS
SF-539 CNS = test system: SF-539 CNS
SK-MEL-28 melanoma = test system: SK-MEL-28 melanoma
MDA-MB-435 = test system: MDA-MB-435
NCI/ADR-RES ovarian = test system: NCI/ADR-RES ovarian
TK-10 renal = test system: TK-10 renal
NCI-H226 lung = test system: NCI-H226 lung
CCRF-CEM leukemia = test system: CCRF-CEM leukemia
BT-549 breast = test system: BT-549 breast
A549 NSCLC = test system: A549 NSCLC
EKVX NSCLC = test system: EKVX NSCLC
PC-3 prostate = test system: PC-3 prostate
HS 578T breast = test system: HS 578T breast
MDA-MB-468 breast = test system: MDA-MB-468 breast
786-0 renal = test system: 786-0 renal
OVCAR-3 ovarian = test system: OVCAR-3 ovarian
NCI-H23 lung = test system: NCI-H23 lung

With O=C(N/C(=C1/OCCN1Cc1ccccc1)[P+](c1ccccc1)(c1ccccc1)c1ccccc1)c1ccccc1 the GI50 (SNB-75 CNS) was 1.62 µM, the TGI (SNB-75 CNS) was 10.7 µM and the GI50 (SF-268 CNS) was 3.41 µM. The TGI (SF-268 CNS) was 15.7 µM, the GI50 (SR leukemia) was 2.7 µM and the TGI (SR leukemia) was 11.6 µM. For the same compound, the GI50 (NCI-H522 lung) was 1.83 µM, the TGI (NCI-H522 lung) was 6.36 µM and the GI50 (HT29 colon) was 6.13 µM. The TGI (HT29 colon) was 29.8 µM, the GI50 (SW-620 colon) was 4.51 µM and the TGI (SW-620 colon) was 17.1 µM. The GI50 (OVCAR-5 ovarian) was 13.5 µM, the TGI (OVCAR-5 ovarian) was 26.8 µM and the GI50 (U251 CNS) was 3.24 µM. The TGI (U251 CNS) was 13 µM, the GI50 (CAKI-1 renal) was 5.76 µM and the TGI (CAKI-1 renal) was 21.7 µM. The GI50 (IGROV1 ovarian) was 2.47 µM, the TGI (IGROV1 ovarian) was 9.71 µM and the GI50 (SK-MEL-2 melanoma) was 2.36 µM. For the same compound, the TGI (SK-MEL-2 melanoma) was 6.08 µM, the GI50 (HCT-116 colon) was 3.09 µM and the TGI (HCT-116 colon) was 12.9 µM. It also gave a GI50 (NCI-H460 lung) of 3.71 µM, a TGI (NCI-H460 lung) of 14.6 µM and a GI50 (ACHN renal) of 13.4 µM. The TGI (ACHN renal) was 26.5 µM, the GI50 (SNB-19 CNS) was 2.79 µM and the TGI (SNB-19 CNS) was 10.7 µM. For the same compound, the GI50 (LOX IMVI melanoma) was 4.12 µM, the TGI (LOX IMVI melanoma) was 15.1 µM and the GI50 (SN12C renal) was 3.34 µM. It also gave a TGI (SN12C renal) of 11.7 µM, a GI50 (DU-145 prostate) of 4.46 µM and a TGI (DU-145 prostate) of 17.4 µM. For the same compound, the GI50 (MDA-MB-231 breast) was 2.1 µM, the TGI (MDA-MB-231 breast) was 5.81 µM and the GI50 (COLO 205 colon) was 2.66 µM. It also gave a TGI (COLO 205 colon) of 7.46 µM, a GI50 (UO-31 renal) of 15.5 µM and a TGI (UO-31 renal) of 29.1 µM. The GI50 (OVCAR-8 ovarian) was 4.25 µM, the TGI (OVCAR-8 ovarian) was 16.9 µM and the GI50 (UACC-257 melanoma) was 2.22 µM. The TGI (UACC-257 melanoma) was 5.97 µM, the GI50 (HCT-15 colon) was 15.6 µM and the TGI (HCT-15 colon) was 30.2 µM. The GI50 (UACC-62 melanoma) was 2.05 µM, the TGI (UACC-62 melanoma) was 6.71 µM and the GI50 (M14 melanoma) was 3.67 µM. For the same compound, the TGI (M14 melanoma) was 15.7 µM, the GI50 (A498 renal) was 16.4 µM and the TGI (A498 renal) was 31.4 µM. For the same compound, the GI50 (SK-OV-3 ovarian) was 10.3 µM, the TGI (SK-OV-3 ovarian) was 27.2 µM and the GI50 (HL-60(TB) leukemia) was 1.78 µM. It also gave a TGI (HL-60(TB) leukemia) of 5.46 µM, a GI50 (T-47D breast) of 2.41 µM and a TGI (T-47D breast) of 12.9 µM. The GI50 (MALME-3M melanoma) was 1.66 µM, the TGI (MALME-3M melanoma) was 3.7 µM and the GI50 (KM12 colon) was 3.4 µM. The TGI (KM12 colon) was 11.9 µM, the GI50 (RPMI-8226 leukemia) was 1.14 µM and the TGI (RPMI-8226 leukemia) was 3.94 µM. The GI50 (MOLT-4 leukemia) was 3.36 µM, the TGI (MOLT-4 leukemia) was 68.3 µM and the GI50 (SK-MEL-5 melanoma) was 1.58 µM. For the same compound, the TGI (SK-MEL-5 melanoma) was 2.93 µM, the GI50 (MCF7 breast) was 2.71 µM and the TGI (MCF7 breast) was 11.3 µM. It also gave a GI50 (HOP-62 NSCLC) of 11.3 µM, a TGI (HOP-62 NSCLC) of 25 µM and a GI50 (RXF 393 renal) of 2.46 µM. The TGI (RXF 393 renal) was 10.3 µM, the GI50 (OVCAR-4 ovarian) was 5 µM and the TGI (OVCAR-4 ovarian) was 21.8 µM. For the same compound, the GI50 (HCC-2998 colon) was 2.68 µM, the TGI (HCC-2998 colon) was 9.86 µM and the GI50 (HOP-92 NSCLC) was 1.99 µM. For the same compound, the TGI (HOP-92 NSCLC) was 7.37 µM, the GI50 (K-562 leukemia) was 2.08 µM and the TGI (K-562 leukemia) was > 100 µM. For the same compound, the GI50 (SF-295 CNS) was 9.92 µM, the TGI (SF-295 CNS) was 21.9 µM and the GI50 (SF-539 CNS) was 6.59 µM. It also gave a TGI (SF-539 CNS) of 19.6 µM, a GI50 (SK-MEL-28 melanoma) of 3.75 µM and a TGI (SK-MEL-28 melanoma) of 14.9 µM. The GI50 (MDA-MB-435) was 3.2 µM, the TGI (MDA-MB-435) was 12 µM and the GI50 (NCI/ADR-RES ovarian) was > 100 µM. For the same compound, the TGI (NCI/ADR-RES ovarian) was > 100 µM, the GI50 (TK-10 renal) was 4.06 µM and the TGI (TK-10 renal) was 16.8 µM. The GI50 (NCI-H226 lung) was 3.91 µM, the TGI (NCI-H226 lung) was 15.6 µM and the GI50 (CCRF-CEM leukemia) was 3.84 µM. For the same compound, the TGI (CCRF-CEM leukemia) was 29.9 µM, the GI50 (BT-549 breast) was 2.47 µM and the TGI (BT-549 breast) was 8.75 µM. For the same compound, the GI50 (A549 NSCLC) was 15.1 µM, the TGI (A549 NSCLC) was 54.4 µM and the GI50 (EKVX NSCLC) was 3.63 µM. The TGI (EKVX NSCLC) was 12.2 µM, the GI50 (PC-3 prostate) was 3.77 µM and the TGI (PC-3 prostate) was 16.4 µM. It also gave a GI50 (HS 578T breast) of 3.07 µM, a TGI (HS 578T breast) of 20.7 µM and a GI50 (MDA-MB-468 breast) of 1.45 µM. The TGI (MDA-MB-468 breast) was 5.68 µM, the GI50 (786-0 renal) was 10.7 µM and the TGI (786-0 renal) was 23.8 µM. The GI50 (OVCAR-3 ovarian) was 2.78 µM, the TGI (OVCAR-3 ovarian) was 10.8 µM and the GI50 (NCI-H23 lung) was 3.16 µM. For the same compound, the TGI (NCI-H23 lung) was 13.3 µM.
